From patent publication US4885239A, “Rapid differentiation of bacteria using polyether antibiotics” (Eastman Kodak Company, priority 1986, dated 1989)

Assays:
[1] = system: viable gram-positive and gram-negative bacteria; test: differentiation of viable gram-positive and gram-negative bacteria (outcome in words); format: cell-based; settings: for differentiation of gram-positive and gram-negative bacteria: RIND XXXV, Examples 8 and 9; for differentiating gram-positive and gram-negative bacteria: RIND VII, Examples 2-3
Experimental: (§1) gram-negative bacteria Enterobacter cloacae (ATCC 23355), Escherichia coli (ATCC 25922), Proteus vulgaris (ATCC 13315), Klebsiella pneumoniae (ATCC 13883) and Pseudomonas aeruginosa (ATCC 27853), and gram-positive bacteria Staphylococcus aureus (ATCC 25923) and Streptococcus pyogenes (ATCC 19615), and brain heart infusion (BHI) broth from Difco Laboratories (Detroit, Mich.),
(§2) Bacterial suspensions were prepared by growing the cells in BHI to stationary phase overnight at 37° C. P. aeruginosa was grown with agitation. About 40 ml of overnight cultures were centrifuged, decanted and washed once with 0.05 molar potassium phosphate buffer or 0.05 molar N-2-hydroxyethylpiperazine-N'-2-ethanesulfonic acid (HEPES) buffer, pH 7.8, and resuspended in buffer.
TERGITOL 7 anionic surfactant was used to differentiate viable bacteria according to the prior art method. Various concentrations of TERGITOL 7 surfactant were mixed with a 10% glucose solution (50 μl), 3-(4,5-dimethyl-2-thiazolyl)-2,5-diphenyl-2N-tetrazolium bromide (MTT) in methanol (25 μl at 5 mg/ml) or a RIND VII dispersion (1.5 ml) and phenazine methosulfate ETA (25 μl at 3 mg/ml methanol). The volume of each test solution was brought to 3 ml with potassium phosphate buffer. A cell suspension (100 μl at about 10^8 cells/ml) was then added. The solutions were incubated at 37° C. for 15 and 30 minutes in the presence of either E. coli, a gram (-) bacterium, or S. aureus, a gram (+) bacterium. The amount of dye formed was then determined visually and graded as follows: 0 indicates no dye formation, +/- indicates faint dye formation, 1+ indicates light dye formation, 2+ indicates moderate dye formation, 3+ indicates strong dye formation, and 4+ indicates very strong dye formation.
Calimycin, a polyether antibiotic, was similarly used with RIND VII in the differentiation of bacteria. Assays were performed as described above, except that 25 μl of 1 molar calcium chloride solution was added to each test solution and the P. aeruginosa response was measured in the presence of 10% yeast extract as the carbon source instead of glucose. The final concentration of calimycin in each test was 10^-3 molar.
(§3) The test solutions were prepared by adding the following, in order: 1.2 ml HEPES, 50 μl glucose solution, 1.5 ml RIND VII dispersion, 100 μl antibiotic solution, 100 μl cell suspension and 25 μl ETA solution. Cell control solutions contained all reagents except antibiotics. Background Controls consisted of both buffer and solution controls. The buffer control contained all reagents except antibiotics and cells. The solution control contained all reagents except cells.
(§4) Optical density readings (OD) were made at 635 nm at 0 minutes and after incubation at 37° C. for 30 minutes for all solutions, and the change (ΔOD) was determined. Table V below lists the results expressed as corrected percent inhibition of the reduction of RIND VII. The corrected percent inhibition was calculated by dividing the difference between ΔOD obtained from a Control test without antibiotic and the ΔOD of the test, by the ΔOD of the Control without antibiotic. All readings were corrected by subtracting readings of the appropriate background control.
Relative fluorescence was measured using a standard spectrophotometer modified to read at excitation of 540 nm and emission of 620 nm. The change (Δ) in relative fluorescence was determined after 30 minutes at 37° C. for several concentration levels of antibiotic.
Optical density measurements were obtained at 540 nm using a standard spectrophotometer and the change in optical density (ΔOD) was determined after 30 minutes at 37° C. The resulting data are shown in Table VII below for several concentrations of antibiotic. It is clear from the data that the composition of this example was useful for differentiating bacteria. […]

S. aureus (gram +) [2] = test: inhibition of the reduction of RIND XXXV (Examples 8 and 9), S. aureus; format: cell-based, Staphylococcus aureus (ATCC 25923); settings: 50 μl of 10 mg/ml antibiotic premixed with 1 ml cells (septamycin with calcium chloride), 30 minutes, 37° C., average of two replicates
Experimental: as §1
(§5) Bacterial suspensions were prepared by growing the cells in BHI to stationary phase overnight at 37° C. P. aeruginosa was grown with agitation. […]
(§6) Optical density readings (OD) were made at 635 nm at 0 minutes and after incubation at 37° C. for 30 minutes for all solutions, and the change (ΔOD) was determined. Table V below lists the results expressed as corrected percent inhibition of the reduction of RIND VII. The corrected percent inhibition was calculated by dividing the difference between ΔOD obtained from a Control test without antibiotic and the ΔOD of the test, by the ΔOD of the Control without antibiotic. All readings were corrected by subtracting readings of the appropriate background control. […]
(§7) Relative fluorescence was measured at an emission of 620 nm after excitation at 540 nm using a […] microfluor Reader, and the change in fluorescence (Δ relative fluorescence) after 30 minutes at 37° C. was determined as the average of two replicates.

E. coli (gram -) [3] = test: inhibition of the reduction of RIND XXXV (Examples 8 and 9), E. coli; format: cell-based, Escherichia coli (ATCC 25922); settings: 50 μl of 10 mg/ml antibiotic premixed with 1 ml cells (septamycin with calcium chloride), 30 minutes, 37° C., average of two replicates
Experimental: as §1, §5, §6, §7

E. coli (gram -) [4] = test: inhibition of the reduction of RIND VII (solution assay, Examples 2-3), E. coli; format: cell-based, Escherichia coli (ATCC 25922); settings: 635 nm, 30 minutes, 37° C.
Experimental: as §1, §2
(§8) A dispersion containing a RIND compound was prepared by dissolving RIND VII from Table II above in N,N-dimethylformamide (DMF) at 16 mg compound per ml of solvent. An aliquot (250 μl) of the resulting solution was added to 500 μl of TRITON X-100 surfactant. This mixture was then added dropwise with stirring to 25 ml of 0.05 molar HEPES buffer. A solution containing a water-compatible RIND compound XXXV was prepared by dissolving the compound (16 mg/ml) in N,N-dimethylformamide which had been acidified with a 0.1% sulfuric acid solution.
(§9) The following materials were used in these examples: stock dispersion of RIND VII as described above, glucose (10% in water), trimethyl-1,4-benzoquinone ETA (1.5 mg/ml methanol), each antibiotic at 1, 5, and 10 mg/ml methanol. Microbial cells were grown as described above. The final approximate cell concentrations were: 1.4×10^7 cells/ml for E. coli and 2.4×10^7 cells/ml for S. aureus.
as §3, §4

S. aureus (gram +) [5] = test: inhibition of the reduction of RIND VII (solution assay, Examples 2-3), S. aureus; format: cell-based, Staphylococcus aureus (ATCC 25923); settings: 635 nm, 30 minutes, 37° C.
Experimental: as §1, §2, §8, §9, §3, §4

[6] = E1/2 (reduction potential) of the quinone nucleus of RIND compounds; format: physicochemical; settings: quinone nucleus with hydrogen in place of the side chain
Description: Examples of such nuclei are presented below. […] Preferably, the E1/2 is from about +100 mV to about +400 mV as measured in water, or from about -650 to about -300 mV as measured in acetonitrile. […] Further details of measuring the E1/2 are described below prior to Table I. The desired E1/2 is achieved by appropriate electron withdrawing groups on the CAR--nucleus, or by a strained fused ring attached to the nucleus or a combination of both.
A standard calomel electrode was used as a standard. Some E1/2 values (denoted by *) were measured in acetonitrile using a saturated calomel electrode as a standard. E1/2 values not available are denoted by "NA".

[7] = aqueous emulsion, DMF, TRITON X-100, sodium phosphate buffer pH 7, calomel electrode
[8] = (*) in acetonitrile, saturated calomel electrode

## COC1CCC(OC2C(C)C(O)(C(C)C(=O)O)OC(CC3CC(OC)C(C)C4(O3)OC(C)(C3CCC(C5CCC(C6OC(C)(O)C(C)C(OC)C6C)O5)O3)C(OC)C4C)C2(C)OC)OC1C (stereo not drawn) [Antibiotic A204]
[1]
  differentiation of gram-positive and gram-negative bacteria: useful for differentiation of gram-positive and gram-negative bacteria
S. aureus (gram +) [2]
  Corrected Percent Inhibition: 35.8%
E. coli (gram -) [3]
  Corrected Percent Inhibition: 3.6%

## CC[C@@H](C(=O)[C@@H](C)[C@@H](O)[C@H](C)CCc1ccc(C)c(O)c1C(=O)O)[C@H]1O[C@](CC)([C@H]2CC[C@](O)(CC)[C@H](C)O2)C[C@@H]1C [Lasalocid, lasalocid]
[1]
  differentiating gram-positive and gram-negative bacteria: effective in differentiating gram-positive and gram-negative bacteria
E. coli (gram -) [4]; antibiotic 0.033 mg/ml
  Corrected Percent Inhibition: 6.6%
E. coli (gram -) [4]; antibiotic 0.166 mg/ml
  Corrected Percent Inhibition: 10.5%
E. coli (gram -) [4]; antibiotic 0.333 mg/ml
  Corrected Percent Inhibition: 25.5%
S. aureus (gram +) [5]; antibiotic 0.033 mg/ml
  Corrected Percent Inhibition: 35.2%
S. aureus (gram +) [5]; antibiotic 0.166 mg/ml
  Corrected Percent Inhibition: 50.9%
S. aureus (gram +) [5]; antibiotic 0.333 mg/ml
  Corrected Percent Inhibition: 60.1%

## CC[C@@]1([C@@H]2O[C@@H]([C@H]3O[C@@](O)(CO)[C@H](C)C[C@@H]3C)C[C@@H]2C)CC[C@H]([C@]2(C)CC[C@]3(C[C@H](O)[C@@H](C)[C@@H]([C@@H](C)[C@@H](OC)[C@H](C)C(=O)O)O3)O2)O1 [Monensin, monensin A]
[1]
  differentiating gram-positive and gram-negative bacteria: effective in differentiating gram-positive and gram-negative bacteria
E. coli (gram -) [4]; antibiotic 0.033 mg/ml
  Corrected Percent Inhibition: 5.1%
E. coli (gram -) [4]; antibiotic 0.166 mg/ml
  Corrected Percent Inhibition: No inhibition
E. coli (gram -) [4]; antibiotic 0.333 mg/ml
  Corrected Percent Inhibition: No inhibition
S. aureus (gram +) [5]; antibiotic 0.033 mg/ml
  Corrected Percent Inhibition: 34.4%
S. aureus (gram +) [5]; antibiotic 0.166 mg/ml
  Corrected Percent Inhibition: 43.0%
S. aureus (gram +) [5]; antibiotic 0.333 mg/ml
  Corrected Percent Inhibition: 42.0%

## CC(C1=C(CN(C)C(=O)Oc2ccc(N=Nc3ccc([N+](=O)[O-])cc3S(C)(=O)=O)c3c(NS(=O)(=O)c4cccc(S(N)(=O)=O)c4)cccc23)C(=O)C(C(C)c2ccc([N+](=O)[O-])cc2)=C(CN(C)C(=O)Oc2ccc(N=Nc3ccc([N+](=O)[O-])cc3S(C)(=O)=O)c3c(NS(=O)(=O)c4cccc(S(N)(=O)=O)c4)cccc23)C1=O)c1ccc([N+](=O)[O-])cc1 (stereo not drawn) [RIND II]
[6]; [7]
  E1/2: +236 mV

## CN(CC1=C(c2ccccc2)C(=O)C(CN(C)C(=O)Oc2ccc(N=Nc3ccc([N+](=O)[O-])cc3S(C)(=O)=O)c3c(NS(=O)(=O)c4cccc(S(N)(=O)=O)c4)cccc23)=C(c2ccccc2)C1=O)C(=O)Oc1ccc(N=Nc2ccc([N+](=O)[O-])cc2S(C)(=O)=O)c2c(NS(=O)(=O)c3cccc(S(N)(=O)=O)c3)cccc12 [RIND IV]
[6]; [8]
  E1/2: -460 mV

## CCCCCCCCCCNS(=O)(=O)c1ccc(C(C)C2=C(CN(C)C(=O)Oc3ccc(N=Nc4ccc([N+](=O)[O-])cc4S(C)(=O)=O)c4c(NS(=O)(=O)c5cccc(S(N)(=O)=O)c5)cccc34)C(=O)C(C(C)c3ccc(S(=O)(=O)NCCCCCCCCCC)cc3)=C(CN(C)C(=O)Oc3ccc(N=Nc4ccc([N+](=O)[O-])cc4S(C)(=O)=O)c4c(NS(=O)(=O)c5cccc(S(N)(=O)=O)c5)cccc34)C2=O)cc1 (stereo not drawn) [RIND I]
[6]; [8]
  E1/2: -528 mV

## CN(CC1=C(c2ccc(C#N)cc2)C(=O)C2=C(C1=O)C1C=CC2CC1)C(=O)Oc1ccc(N=Nc2ccc([N+](=O)[O-])cc2S(C)(=O)=O)c2c(NS(=O)(=O)c3cccc(S(N)(=O)=O)c3)cccc12 (stereo not drawn) [RIND XVII]
[6]; [7]
  E1/2: +240 mV

## CCCCCCCCCCNS(=O)(=O)c1ccc(C(C)C2=C(CN(C)C(=O)Oc3ccc4c(C)cc(=O)oc4c3)C(=O)C(C(C)c3ccc(S(=O)(=O)NCCCCCCCCCC)cc3)=C(CN(C)C(=O)Oc3ccc4c(C)cc(=O)oc4c3)C2=O)cc1 (stereo not drawn) [RIND XXII]
[6]; [8]
  E1/2: -528 mV

## CCCCCCCCCCNS(=O)(=O)c1ccc(C(C)C2=C(CN(C)C(=O)Oc3ccc(N=Nc4cccc(S(N)(=O)=O)c4)c4c(NS(C)(=O)=O)cccc34)C(=O)C(C(C)c3ccc(S(=O)(=O)NCCCCCCCCCC)cc3)=C(CN(C)C(=O)Oc3ccc(N=Nc4cccc(S(N)(=O)=O)c4)c4c(NS(C)(=O)=O)cccc34)C2=O)cc1 (stereo not drawn) [RIND XXI]
[6]; [8]
  E1/2: -528 mV

## CC1=C(C)C(=O)C(c2ccccc2)=C(CN(C)C(=O)Oc2ccc(N=Nc3ccc([N+](=O)[O-])cc3S(C)(=O)=O)c3c(NS(=O)(=O)c4cccc(S(N)(=O)=O)c4)cccc23)C1=O [RIND XXXVI]
[6]; [7]
  E1/2: +144 mV

## CO[C@H]1C[C@@H](C[C@H]2O[C@@](O)([C@H](C)C(=O)O)[C@H](C)[C@H](OC)[C@@]2(C)O[C@H]2CC[C@@H](OC)[C@H](C)O2)O[C@]2(O[C@@](C)([C@@H]3CC[C@H]([C@H]4CC[C@H]([C@H]5O[C@](C)(O)[C@H](C)C[C@@H]5C)O4)O3)[C@H](OC)[C@H]2C)[C@@H]1C [Septamycin, septamycin]
[1]
  differentiation of gram-positive and gram-negative bacteria: useful for differentiation of gram-positive and gram-negative bacteria
S. aureus (gram +) [2]
  Corrected Percent Inhibition: 74.9%
E. coli (gram -) [3]
  Corrected Percent Inhibition: 52.3%
